Reference: US11596639B2, “Substituted indole Mcl-1 inhibitors” (Vanderbilt University, priority 2016, dated 2023)

Tests used:
Mcl-1 = Mcl-1 (Homo sapiens (Human), UniProt Q07820); test: TR-FRET binding assay, FITC-Bak peptide and MBP-tagged Mcl-1; details: read-out: Ki for Inhibition of Mcl-1 by TR-FRET assay
Protocol: Compounds are diluted in DMSO in a 16-point, semilog serial dilution scheme. […] The plate was mixed and incubated for 3 hours at room temperature. […] TR-FRET signal is plotted and IC50 and Ki values are calculated in the same manner as the fluorescence polarization anisotropy based competition assays.

[1] = tested on: H929 human cancer cell lines; test: Cellular viability / proliferation (Cell TiterGlo, 72 h); format: cell-based; details: Homo sapiens, NCI-H929, 72 h, read-out: GI50 on cellular proliferation of H929 human cancer cell lines, H929 cells, 72 h, Cell TiterGlo, 10% FBS
Outline: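 1,000 cells/well, 10% FBS medium; compound added at 24 h, 2-fold dilutions from 50 μM top, DMSO <1% final. 72 h exposure, CellTiterGlo 30 min RT dark, luminescence read. IC50 by 4-parameter fit.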

Chain of Mcl-1 (Q07820 172-327): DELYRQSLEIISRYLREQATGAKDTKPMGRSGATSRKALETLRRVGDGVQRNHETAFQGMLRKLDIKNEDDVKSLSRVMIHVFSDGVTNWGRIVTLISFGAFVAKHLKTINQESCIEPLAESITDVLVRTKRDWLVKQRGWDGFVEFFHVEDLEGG

| SMILES | Ki (Mcl-1) [µM] | GI50 [1] [µM] |
| --- | --- | --- |
| Cc1cc(N2C[C@@H](C)n3c(c(CCCOc4cc(C)c(Cl)c(C)c4)c4ccc(Cl)c(-c5c(C)nn(C)c5C)c43)C2=O)c2c(c1)cc(C(=O)O)n2Cc1cc(C#N)ccn1 [Example 556, (R)-7-(7-chloro-10-(3-(4-chloro-3,5-dimethylphenoxy)propyl)-4-methyl-1-oxo-6-(1,3,5-trimethyl-1H-pyrazol-4-yl)-3,4-dihydropyrazino[1,2-a]indol-2(1H)-yl)-1-((4-cyanopyridin-2-yl)methyl)-5-methyl-1H-indole-2-carboxylic acid] | < 0.0002 | 0.28 |
| COCCn1cc(C(=O)O)c2cc(OCCN3CCN(C)CC3)cc(N3C[C@@H](C)n4c(c(CCCOc5cc(C)c(Cl)c(C)c5)c5ccc(Cl)c(-c6c(C)nn(C)c6C)c54)C3=O)c21 [Example 676, (R)-7-(7-chloro-10-(3-(4-chloro-3,5-dimethylphenoxy)propyl)-4-methyl-1-oxo-6-(1,3,5-trimethyl-1H-pyrazol-4-yl)-3,4-dihydropyrazino[1,2-a]indol-2(1H)-yl)-1-(2-methoxyethyl)-5-(2-(4-methylpiperazin-1-yl)ethoxy)-1H-indole-3-carboxylic acid] | 0.00056 | 1.1 |
| CCc1ccnc(Cn2c(C(=O)O)cc3cc(C)cc(N4C[C@@H](C)n5c(c(CCCOc6cc(C)c(Cl)c(C)c6)c6ccc(Cl)c(-c7c(C)nn(C)c7C)c65)C4=O)c32)c1 [Example 627, (R)-7-(7-chloro-10-(3-(4-chloro-3,5-dimethylphenoxy)propyl)-4-methyl-1-oxo-6-(1,3,5-trimethyl-1H-pyrazol-4-yl)-3,4-dihydropyrazino[1,2-a]indol-2(1H)-yl)-1-((4-ethylpyridin-2-yl)methyl)-5-methyl-1H-indole-2-carboxylic acid] | < 0.0002 | < 0.2 |
| COc1ccc(N2C[C@@H](C)n3c(c(CCCOc4cc(C)c(Cl)c(C)c4)c4ccc(Cl)c(-c5c(C)nc(CN(C)C)nc5C)c43)C2=O)c2c1cc(C(=O)O)n2C [Example 483, (R)-7-(7-Chloro-10-(3-(4-chloro-3,5-dimethylphenoxy)propyl)-6-(2-((dimethylamino)methyl)-4,6-dimethylpyrimidin-5-yl)-4-methyl-1-oxo-3,4-dihydropyrazino[1,2-a]indol-2(1H)-yl)-4-methoxy-1-methyl-1H-indole-2-carboxylic acid] | < 0.0002 | 0.28 |
| Cc1cc(OCCCc2c3n(c4c(-c5c(C)nn(C)c5C)c(Cl)ccc24)[C@H](C)CN(c2cn(CCN4CCOCC4)c4ccc(-c5ncn(-c6ncccn6)n5)cc24)C3=O)cc(C)c1Cl [Example 720, (R)-7-Chloro-10-(3-(4-chloro-3,5-dimethylphenoxy)propyl)-4-methyl-2-(1-(2-morpholinoethyl)-5-(1-(pyrimidin-2-yl)-1H-1,2,4-triazol-3-yl)-1H-indol-3-yl)-6-(1,3,5-trimethyl-1H-pyrazol-4-yl)-3,4-dihydropyrazino[1,2-a]indol-1(2H)-one] | 0.00051 | 0.22 |
| Cc1cc(OCCCc2c3n(c4c(-c5c(C)nn(C)c5C)c(Cl)ccc24)[C@H](C)CN(c2cc(NC(=O)CN4CCCCC4)cc4c(C(=O)O)cn(C)c24)C3=O)cc(C)c1Cl [Example 533, (R)-7-(7-Chloro-10-(3-(4-chloro-3,5-dimethylphenoxy)propyl)-4-methyl-1-oxo-6-(1,3,5-trimethyl-1H-pyrazol-4-yl)-3,4-dihydropyrazino[1,2-a]indol-2(1H)-yl)-1-methyl-5-(2-(piperidin-1-yl)acetamido)-1H-indole-3-carboxylic acid] | 0.00069 | 1.3 |
| COCc1cc(N2C[C@@H](C)n3c(c(CCCOc4cc(C)c(Cl)c(C)c4)c4ccc(Cl)c(-c5c(C)nn(C)c5C)c43)C2=O)c2c(c1)cc(C(=O)O)n2C [Example 607, (R)-7-(7-chloro-10-(3-(4-chloro-3,5-dimethylphenoxy)propyl)-4-methyl-1-oxo-6-(1,3,5-trimethyl-1H-pyrazol-4-yl)-3,4-dihydropyrazino[1,2-a]indol-2(1H)-yl)-5-(methoxymethyl)-1-methyl-1H-indole-2-carboxylic acid] | < 0.0002 | < 0.2 |
| COC1CCN(Cc2cc(N3C[C@@H](C)n4c(c(CCCOc5cc(C)c(Cl)c(C)c5)c5ccc(Cl)c(-c6c(C)nn(C)c6C)c54)C3=O)c3c(c2)cc(C(=O)O)n3C)CC1 [Example 649, (R)-7-(7-chloro-10-(3-(4-chloro-3,5-dimethylphenoxy)propyl)-4-methyl-1-oxo-6-(1,3,5-trimethyl-1H-pyrazol-4-yl)-3,4-dihydropyrazino[1,2-a]indol-2(1H)-yl)-5-((4-methoxypiperidin-1-yl)methyl)-1-methyl-1H-indole-2-carboxylic acid] | < 0.0002 | < 0.2 |
| COc1ccnc(Cn2c(C(=O)O)cc3c(OC)ccc(N4C[C@@H](C)n5c(c(CCCOc6cc(C)c(Cl)c(C)c6)c6ccc(Cl)c(-c7c(C)ncnc7C)c65)C4=O)c32)c1 [Example 476, (R)-7-(7-Chloro-10-(3-(4-chloro-3,5-dimethylphenoxy)propyl)-6-(4,6-dimethylpyrimidin-5-yl)-4-methyl-1-oxo-3,4-dihydropyrazino[1,2-a]indol-2(1H)-yl)-4-methoxy-1-((4-methoxypyridin-2-yl)methyl)-1H-indole-2-carboxylic acid] | < 0.0002 | < 0.2 |
| COCCOc1ccc(N2C[C@@H](C)n3c(c(CCCOc4cc(C)c(Cl)c(C)c4)c4ccc(Cl)c(-c5c(C)nn(C)c5C)c43)C2=O)c2c1cc(C(=O)O)n2Cc1cc(C)ccn1 [Example 632, (R)-7-(7-chloro-10-(3-(4-chloro-3,5-dimethylphenoxy)propyl)-4-methyl-1-oxo-6-(1,3,5-trimethyl-1H-pyrazol-4-yl)-3,4-dihydropyrazino[1,2-a]indol-2(1H)-yl)-4-(2-methoxyethoxy)-1-((4-methylpyridin-2-yl)methyl)-1H-indole-2-carboxylic acid] | < 0.0002 | 0.22 |
| Cc1cc(N2C[C@@H](C)n3c(c(CCCOc4cc(C)c(Cl)c(C)c4)c4ccc(Cl)c(-c5c(C)nn(C)c5C)c43)C2=O)c2c(c1)cc(C(=O)O)n2CCO [Example 657, (R)-7-(7-chloro-10-(3-(4-chloro-3,5-dimethylphenoxy)propyl)-4-methyl-1-oxo-6-(1,3,5-trimethyl-1H-pyrazol-4-yl)-3,4-dihydropyrazino[1,2-a]indol-2(1H)-yl)-1-(2-hydroxyethyl)-5-methyl-1H-indole-2-carboxylic acid] | < 0.0002 | 0.61 |
| COCCn1cc(N2C[C@@H](C)n3c(c(CCCOc4cc(C)c(Cl)c(C)c4)c4ccc(Cl)c(-c5c(C)nn(C)c5C)c43)C2=O)c2cc(-c3ncn(C)n3)ccc21 [Example 524, (R)-7-Chloro-10-(3-(4-chloro-3,5-dimethylphenoxy)propyl)-2-(1-(2-methoxyethyl)-5-(1-methyl-1H-1,2,4-triazol-3-yl)-1H-indol-3-yl)-4-methyl-6-(1,3,5-trimethyl-1H-pyrazol-4-yl)-3,4-dihydropyrazino[1,2-a]indol-1(2H)-one] | 0.00028 | 0.22 |
| Cc1cc(OCCCc2c3n(c4c(-c5c(C)nn(C)c5C)c(Cl)ccc24)[C@H](C)CN(c2cc(NCc4ccccn4)cc4c(C(=O)O)cn(C)c24)C3=O)cc(C)c1Cl [Example 523, (R)-7-(7-Chloro-10-(3-(4-chloro-3,5-dimethylphenoxy)propyl)-4-methyl-1-oxo-6-(1,3,5-trimethyl-1H-pyrazol-4-yl)-3,4-dihydropyrazino[1,2-a]indol-2(1H)-yl)-1-methyl-5-((pyridin-2-ylmethyl)amino)-1H-indole-3-carboxylic acid] | 0.0005 | 0.89 |
| Cc1cc(OCCCc2c3n(c4c(-c5c(C)nn(C)c5C)c(Cl)ccc24)[C@H](C)CN(c2cc(OCc4ccccn4)cc4cc(C(=O)O)n(C)c24)C3=O)cc(C)c1Cl [Example 481, (R)-7-(7-Chloro-10-(3-(4-chloro-3,5-dimethylphenoxy)propyl)-4-methyl-1-oxo-6-(1,3,5-trimethyl-1H-pyrazol-4-yl)-3,4-dihydropyrazino[1,2-a]indol-2(1H)-yl)-1-methyl-5-(pyridin-2-ylmethoxy)-1H-indole-2-carboxylic acid] | < 0.0002 | 0.24 |
| Cc1cc(OCCCc2c3n(c4c(-c5c(C)nn(C)c5C)c(Cl)ccc24)[C@H](C)CN(c2cn(CC(=O)N4CCCC4)c4ccc(-c5ncn(C)n5)cc24)C3=O)cc(C)c1Cl [Example 527, (R)-7-Chloro-10-(3-(4-chloro-3,5-dimethylphenoxy)propyl)-4-methyl-2-(5-(1-methyl-1H-1,2,4-triazol-3-yl)-1-(2-oxo-2-(pyrrolidin-1-yl)ethyl)-1H-indol-3-yl)-6-(1,3,5-trimethyl-1H-pyrazol-4-yl)-3,4-dihydropyrazino[1,2-a]indol-1(2H)-one] | 0.00036 | 0.26 |
| Cc1cc(OCCCc2c3n(c4c(-c5c(C)nn(C)c5C)c(Cl)ccc24)[C@H](C)CN(c2cc(NCCN4CCCC4)cc4c(C(=O)O)cn(C)c24)C3=O)cc(C)c1Cl [Example 486, (R)-7-(7-Chloro-10-(3-(4-chloro-3,5-dimethylphenoxy)propyl)-4-methyl-1-oxo-6-(1,3,5-trimethyl-1H-pyrazol-4-yl)-3,4-dihydropyrazino[1,2-a]indol-2(1H)-yl)-1-methyl-5-((2-(pyrrolidin-1-yl)ethyl)amino)-1H-indole-3-carboxylic acid] | 0.0014 | 2.9 |
